Holding throughout (format): biochemical
For one test, the target named is Human Factor XIIa (Homo sapiens (Human), UniProt P00748). Put plainly: Determination of FXIIa inhibition (fluorogenic substrate H-DPro-Phe-Arg-AFC, IC50 assay). As to conditions: substrate H-DPro-Phe-Arg-AFC at Km, 25° C.; class scale A-G. The method in brief: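 IC50 derived from % remaining activity, taken as the linear fluorescence rate over a 5 min read at 25° C. Substrate H-DPro-Phe-Arg-AFC was used at its Km (Michaelis-Menten) with human FXIIa and serial compound dilutions, 25° C.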

The target in the next test is Plasma Kallikrein (Homo sapiens (Human), UniProt P03952). The test can be described thus: Determination of related protease inhibition: Plasma Kallikrein (fluorogenic substrate at Km). As to conditions: 25° C., read-out: IC50 (human PKal). The essentials: (§1)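 IC50 derived as the concentration halving uninhibited activity, from linear fluorescence increase per minute monitored 5 min at 25 °C. Each human protease was run with its fluorogenic substrate at Km concentration across a range of test compound concentrations.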

A further test concerns the target FXa (Homo sapiens (Human), UniProt P00742). The test can be described thus: Determination of related protease inhibition: FXa (fluorogenic substrate at Km). As to conditions: 25° C. The essentials: as §1
The next test concerns the target Thrombin (Homo sapiens (Human), UniProt P00734). The test can be described thus: Determination of related protease inhibition: Thrombin (fluorogenic substrate at Km). As to conditions: 25° C. On the procedure:
(§2) Determination of Related Protease Inhibition
(§3) In vitro inhibition of related proteases was determined using an ([…] assay based on standard literature methods (see e.g. Shori et al., Biochem. Pharmacol., 1992, 43, 1209; Bouckaert et al., European Journal of Medicinal Chemistry 110 (2016) 181). Human serine protease enzymes Plasma Kallikrein, KLK1, FXa, Plasmin, Thrombin and Trypsin were assayed for enzymatic activity using an appropriate fluorogenic substrate at Km concentration, FXIa at fixed substrate concentration of 100 μM, and various concentrations of the test compound. Protease activity was measured by monitoring the accumulation of liberated fluorescence from the substrate over […]. The linear rate of fluorescence increase per minute was expressed as percentage (%) activity. IC50 values were calculated as the concentration of inhibitor giving 50% inhibition of the uninhibited enzyme activity (100%).

In another test the target is FXIa (Homo sapiens (Human), UniProt P03951). The test can be described thus: Determination of related protease inhibition: FXIa (fixed substrate concentration of 100 μM). As to conditions: 25° C. On the procedure: as §2, §3
For another test, the target named is KLK1 (Homo sapiens (Human), UniProt P06870). The test can be described thus: Determination of related protease inhibition: KLK1 (fluorogenic substrate at Km). As to conditions: 25° C. The method in brief:
as §1

pIC50: −log10 of the molar value.

Chain of FXIa (P03951 388-625): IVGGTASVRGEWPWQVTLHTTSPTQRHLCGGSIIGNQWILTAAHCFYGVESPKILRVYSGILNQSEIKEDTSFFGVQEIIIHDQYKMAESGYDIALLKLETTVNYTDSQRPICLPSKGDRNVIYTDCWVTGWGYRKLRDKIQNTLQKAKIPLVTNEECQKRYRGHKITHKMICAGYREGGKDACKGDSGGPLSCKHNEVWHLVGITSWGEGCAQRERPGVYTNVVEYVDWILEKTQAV
Chain of FXIa (P03951 19-387 partner): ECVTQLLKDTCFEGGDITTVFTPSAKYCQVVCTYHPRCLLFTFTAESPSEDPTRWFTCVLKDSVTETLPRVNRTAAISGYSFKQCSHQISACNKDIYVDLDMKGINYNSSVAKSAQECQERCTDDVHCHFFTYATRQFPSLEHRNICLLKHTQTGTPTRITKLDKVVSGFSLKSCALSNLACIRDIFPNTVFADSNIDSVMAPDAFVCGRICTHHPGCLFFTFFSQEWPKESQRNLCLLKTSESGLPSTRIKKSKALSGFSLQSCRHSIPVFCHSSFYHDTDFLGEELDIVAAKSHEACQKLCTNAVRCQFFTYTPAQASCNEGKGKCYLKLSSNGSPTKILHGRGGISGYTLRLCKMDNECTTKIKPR
Chain of FXa (P00742 235-488): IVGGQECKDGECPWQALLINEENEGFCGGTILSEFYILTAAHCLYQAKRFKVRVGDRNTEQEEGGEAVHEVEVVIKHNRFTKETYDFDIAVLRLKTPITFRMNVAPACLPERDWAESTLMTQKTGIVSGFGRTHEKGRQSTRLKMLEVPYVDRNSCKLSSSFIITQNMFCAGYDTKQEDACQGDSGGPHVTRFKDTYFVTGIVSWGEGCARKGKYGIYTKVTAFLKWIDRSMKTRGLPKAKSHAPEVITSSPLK
Chain of FXa (P00742 41-179 partner): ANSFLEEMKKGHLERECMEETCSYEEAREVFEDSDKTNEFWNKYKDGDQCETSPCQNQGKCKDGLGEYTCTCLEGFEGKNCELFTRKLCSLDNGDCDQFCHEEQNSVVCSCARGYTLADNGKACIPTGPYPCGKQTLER
Chain of Plasma Kallikrein (P03952 391-638): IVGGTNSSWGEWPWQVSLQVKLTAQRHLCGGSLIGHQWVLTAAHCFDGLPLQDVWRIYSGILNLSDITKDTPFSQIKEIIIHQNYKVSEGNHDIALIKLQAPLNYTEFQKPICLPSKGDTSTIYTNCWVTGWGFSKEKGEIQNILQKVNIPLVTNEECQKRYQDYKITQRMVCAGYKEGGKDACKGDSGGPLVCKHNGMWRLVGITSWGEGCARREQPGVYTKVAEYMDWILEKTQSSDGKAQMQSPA
Chain of Plasma Kallikrein (P03952 20-390 partner): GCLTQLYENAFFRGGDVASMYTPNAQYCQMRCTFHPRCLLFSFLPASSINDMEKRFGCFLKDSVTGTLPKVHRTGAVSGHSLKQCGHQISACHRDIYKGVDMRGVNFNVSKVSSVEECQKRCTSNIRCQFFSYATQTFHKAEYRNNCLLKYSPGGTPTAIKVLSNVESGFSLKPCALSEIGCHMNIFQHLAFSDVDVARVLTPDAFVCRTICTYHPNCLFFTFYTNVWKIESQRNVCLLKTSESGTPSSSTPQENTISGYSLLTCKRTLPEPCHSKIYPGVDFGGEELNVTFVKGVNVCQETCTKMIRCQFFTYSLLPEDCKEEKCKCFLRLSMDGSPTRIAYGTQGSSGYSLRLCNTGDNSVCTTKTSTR
Chain of KLK1 (P06870 25-262): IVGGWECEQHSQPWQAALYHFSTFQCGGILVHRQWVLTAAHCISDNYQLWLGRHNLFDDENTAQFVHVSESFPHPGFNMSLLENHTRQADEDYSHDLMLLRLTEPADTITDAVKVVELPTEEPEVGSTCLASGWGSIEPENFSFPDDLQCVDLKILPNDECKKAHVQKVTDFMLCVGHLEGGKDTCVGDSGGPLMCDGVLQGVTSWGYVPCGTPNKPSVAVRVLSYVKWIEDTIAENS
Chain of Human Factor XIIa (P00748 373-615): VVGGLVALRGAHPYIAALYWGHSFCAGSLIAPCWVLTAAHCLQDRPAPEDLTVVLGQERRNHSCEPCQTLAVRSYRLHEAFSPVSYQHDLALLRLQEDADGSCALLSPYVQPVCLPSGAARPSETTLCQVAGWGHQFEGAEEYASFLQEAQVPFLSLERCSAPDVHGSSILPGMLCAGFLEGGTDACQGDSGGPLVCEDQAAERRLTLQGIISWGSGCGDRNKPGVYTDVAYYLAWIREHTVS

The pIC50 is −log10 of the IC50, conventionally taken in molar units. Turning to `CN1CC2C[C@H]1C[C@H]2OCc1ccc(CNc2ccc3c(N)nccc3c2)c(F)c1` (single isomer, unassigned) [Example 2198, N6-(2-fluoro-4-((((4S*,5R*)-2-methyl-2-azabicyclo[2.2.1]heptan-5-yl)oxy)methyl)benzyl)isoquinoline-1,6-diamine], the negative logarithm of the IC50 (pIC50) against Human Factor XIIa is 6.52 to 7.00; at Plasma Kallikrein, 5.00 to 5.52; at FXa it was 5.00 to 5.52; against Thrombin, 4.40 to 5.00; on FXIa it was less than 4.70.
`CN1CC2C[C@@H]1C[C@H]2OCc1ccc(CNc2ccc3c(N)nccc3c2)c(F)c1` (single isomer, unassigned) [Example 2199, N6-(2-fluoro-4-((((4R*,5R*)-2-methyl-2-azabicyclo[2.2.1]heptan-5-yl)oxy)methyl)benzyl)isoquinoline-1,6-diamine]: the pIC50 is 7.00 to 8.00 on Human Factor XIIa; 5.00 to 5.52 at Plasma Kallikrein; 5.00 to 5.52 on FXa; 4.40 to 5.00 at Thrombin; less than 4.70 at FXIa.
For `CN1CCC(COc2ccc(CNc3ccc4c(N)nccc4c3)cn2)CC1` [Example 1005, N6-((6-((1-methylpiperidin-4-yl)methoxy)pyridin-3-yl)methyl)isoquinoline-1,6-diamine], the pIC50 was 6.52 to 7.00 at Human Factor XIIa; 5.00 to 5.52 at Plasma Kallikrein; 5.00 to 5.52 against FXa; 4.40 to 5.00 against Thrombin; less than 4.40 against FXIa.
Consider `Nc1nccc2cc(NCc3ccc(OCC4CCn5ccnc5C4)nc3)ccc12` (stereo not shown) [Example 1006, N6-((6-((5,6,7,8-tetrahydroimidazo[1,2-a]pyridin-7-yl)methoxy)pyridin-3-yl)methyl)isoquinoline-1,6-diamine], for which the pIC50 against Human Factor XIIa was 6.52 to 7.00; on Plasma Kallikrein, 5.52 to 6.00; against FXa, 5.52 to 6.00; against Thrombin it was 5.00 to 5.52; at FXIa, less than 4.40.
Regarding `CN1CCC(COc2ccc(CNc3ccc4cnccc4c3)cn2)CC1` [Example 1008, N-((6-((1-methylpiperidin-4-yl)methoxy)pyridin-3-yl)methyl)isoquinolin-6-amine], the negative-log IC50 (pIC50) against Human Factor XIIa is 5.00 to 5.52; on Plasma Kallikrein it was 4.40 to 5.00; against FXa it was less than 4.70; against Thrombin it was less than 4.70; against FXIa, less than 4.70.
On to `CN1CCC(COc2ccc(CNc3cccc4c(N)nccc34)cn2)CC1` [Example 1009, N5-((6-((1-methylpiperidin-4-yl)methoxy)pyridin-3-yl)methyl)isoquinoline-1,5-diamine], for which the pIC50 on Human Factor XIIa is 6.52 to 7.00; at Plasma Kallikrein it was 5.00 to 5.52; on FXa, less than 4.40; on Thrombin it was less than 4.40; against FXIa, less than 4.40.
For the compound `CCN1CCC(COc2ccc(CNc3ccc4c(N)nccc4c3)cn2)CC1` [Example 1010, 6-N-({6-[(1-ethylpiperidin-4-yl)methoxy]pyridin-3-yl}methyl)isoquinoline-1,6-diamine], the pIC50 against Human Factor XIIa was 6.52 to 7.00; at Plasma Kallikrein it was 5.00 to 5.52; on FXa, 4.40 to 5.00; on Thrombin it was 4.40 to 5.00; against FXIa, less than 4.40.
Regarding `Cn1ccnc1CCOc1cc(CNc2cccc3c(N)nccc23)ccn1` [Example 4282, 5-N-({2-[2-(1-methylimidazol-2-yl)ethoxy]pyridin-4-yl}methyl)isoquinoline-1,5-diamine], the negative-log IC50 (pIC50) at Human Factor XIIa is 5.52 to 6.00; on Plasma Kallikrein, less than 4.40; at KLK1, 5.00 to 5.52; on FXa it was 4.40 to 5.00; at Thrombin, less than 4.40.
For `Cn1ccnc1CCOc1cc(CNc2ccc3c(N)nccc3c2)ccn1` [Example 4283, 6-N-({2-[2-(1-methylimidazol-2-yl)ethoxy]pyridin-4-yl}methyl)isoquinoline-1,6-diamine], the pIC50 on Human Factor XIIa is 5.52 to 6.00; at Plasma Kallikrein, 5.00 to 5.52; against KLK1, 6.00 to 6.52; against FXa, 5.00 to 5.52; at Thrombin, 5.52 to 6.00.
Regarding `CN1CCC(CNc2cc(CNc3ccc4c(N)nccc4c3)ccn2)CC1` [Example 4284, 6-N-[(2-{[(1-methylpiperidin-4-yl)methyl]amino}pyridin-4-yl)methyl]isoquinoline-1,6-diamine], the negative logarithm of the IC50 (pIC50) on Human Factor XIIa was 6.52 to 7.00; at Plasma Kallikrein, 4.40 to 5.00; against KLK1, 5.52 to 6.00; at FXa, 6.00 to 6.52; at Thrombin, 4.40 to 5.00.
Consider `CN1CCC(CNc2cc(CNc3ccc4c(N)ncc(Cl)c4c3)ccn2)CC1` [Example 4285, 4-Chloro-N6-((2-(((1-methylpiperidin-4-yl)methyl)amino)pyridin-4-yl)methyl)isoquinoline-1,6-diamine], for which the pIC50 on Human Factor XIIa is 7.00 to 8.00; at Plasma Kallikrein, less than 4.40; against KLK1, 5.00 to 5.52; against FXa, 4.40 to 5.00; against Thrombin, less than 4.40.
Consider `CN1CCC(CNc2cc(CNc3cccc4c(N)nccc34)ccn2)CC1` [Example 4286, N5-((2-(((1-methylpiperidin-4-yl)methyl)amino)pyridin-4-yl)methyl)isoquinoline-1,5-diamine], for which the negative-log IC50 (pIC50) against Human Factor XIIa was 6.00 to 6.52; at Plasma Kallikrein it was 4.40 to 5.00; against KLK1, 5.00 to 5.52; against FXa it was less than 4.40; on Thrombin, less than 4.40.
In the case of `CN1CCC(NC(=O)c2cc(CNc3cccc4c(N)nccc34)ccn2)CC1` [Example 4289, 4-(((1-aminoisoquinolin-5-yl)amino)methyl)-N-(1-methylpiperidin-4-yl)picolinamide], the negative logarithm of the IC50 (pIC50) on Human Factor XIIa was 6.00 to 6.52; on Plasma Kallikrein it was less than 4.40; against KLK1 it was 4.40 to 5.00; on FXa, less than 4.40; against Thrombin it was less than 4.40.
On to `CC(C)N1C[C@H]2C[C@@H]1CN2Cc1cc(CNc2cccc3c(N)nccc23)ccn1` [Example 4294, 5-N-[(2-{[(1R,4R)-5-isopropyl-2,5-diazabicyclo[2.2.1]heptan-2-yl]methyl}pyridin-4-yl)methyl]isoquinoline-1,5-diamine], for which the negative-log IC50 (pIC50) is 4.40 to 5.00 on Human Factor XIIa; less than 4.40 at Plasma Kallikrein; 4.40 to 5.00 at KLK1; less than 4.40 against FXa; less than 4.40 against Thrombin.
Take `Cc1cn2c(n1)CC(COc1cc(CNc3cccc4c(N)nccc34)ccn1)CC2` (stereo not shown) [Example 4319, N5-[[2-[(2-methyl-5,6,7,8-tetrahydroimidazo[1,2-a]pyridin-7-yl)methoxy]-4-pyridyl]methyl]isoquinoline-1,5-diamine]: the negative-log IC50 (pIC50) was 6.52 to 7.00 on Human Factor XIIa; 5.00 to 5.52 on Plasma Kallikrein; 5.00 to 5.52 against KLK1; 4.40 to 5.00 against FXa; less than 4.40 on Thrombin.
For the compound `Nc1nccc2cc(NCc3ccnc(-c4cccc(CN5CCCC5)c4)c3)ccc12` [Example 4434, 6-N-({2-[3-(pyrrolidin-1-ylmethyl)phenyl]pyridin-4-yl}methyl)isoquinoline-1,6-diamine], the negative logarithm of the IC50 (pIC50) against Human Factor XIIa is 6.52 to 7.00; on Plasma Kallikrein, less than 4.40; at KLK1, 5.00 to 5.52; at FXa it was 5.00 to 5.52; against Thrombin, less than 4.40.
As for `CC(C)N1CCC(CN(CCCO)C(=O)c2cccc(CNc3cccc4c(N)nccc34)c2)CC1` [Example 4441, 3-{[(1-aminoisoquinolin-5-yl)amino]methyl}-N-(3-hydroxypropyl)-N-[(1-isopropylpiperidin-4-yl)methyl]benzamide], the negative logarithm of the IC50 (pIC50) is 6.52 to 7.00 at Human Factor XIIa; 4.40 to 5.00 at Plasma Kallikrein; 5.52 to 6.00 on KLK1; less than 4.40 against FXa; less than 4.40 at Thrombin.
`Cc1cc(NCc2ccnc(OCC3CCN(C)CC3)c2)cc2ccncc12` [Example 4464, 8-methyl-N-((2-((1-methylpiperidin-4-yl)methoxy)pyridin-4-yl)methyl)isoquinolin-6-amine]: the pIC50 was 5.52 to 6.00 against Human Factor XIIa; less than 4.70 at Plasma Kallikrein; 5.00 to 5.52 against KLK1; less than 4.00 at FXa; less than 5.40 at Thrombin.
Regarding `Nc1nccc2c(NCc3ccnc(OCC4CCn5c(nnc5C(F)F)C4)c3)cccc12` (stereo not shown) [Example 4467, N5-((2-((3-(difluoromethyl)-5,6,7,8-tetrahydro-[1,2,4]triazolo[4,3-a]pyridin-7-yl)methoxy)pyridin-4-yl)methyl)isoquinoline-1,5-diamine], the pIC50 on Human Factor XIIa is 6.52 to 7.00; at Plasma Kallikrein it was less than 4.40; at KLK1, 5.00 to 5.52; on FXa it was 4.40 to 5.00; at Thrombin, 4.40 to 5.00.
Regarding `CN1CC(C2CN(c3cc(CNc4ccc5c(N)nccc5c4)ccn3)C2)C1` [Example 5435, N6-((2-(1′-methyl-[3,3′-biazetidin]-1-yl)pyridin-4-yl)methyl)isoquinoline-1,6-diamine], the pIC50 is 5.52 to 6.00 on Human Factor XIIa; 4.40 to 5.00 at Plasma Kallikrein; 5.52 to 6.00 on KLK1; 5.00 to 5.52 on FXa; 5.00 to 5.52 at Thrombin.

The record behind these values is US20240059691A1 (KALVISTA PHARMACEUTICALS LIMITED, priority 2020, published 2024).
